Laboratory results published in patent US20130109734A1 (Metabolex, Inc., priority 2010, published 2013).

What follows are compounds tested against T1, human GPR120 (Homo sapiens, UniProt Q5NUL3) (assay: Intracellular Ca2+ assay in human GPR120 stable cell line (HEK293 co-expressing Gqi5), Flexstation). Settings: % activity at 5 μM compared to the maximal activity of GW9508 at 6.7 μM (=100%); human GPR120 cells, Ca2+ fluorescence.
T1 construct: host or cells: HEK293 cells co-expressing Gqi5
T1 sequence (Q5NUL3 1-361): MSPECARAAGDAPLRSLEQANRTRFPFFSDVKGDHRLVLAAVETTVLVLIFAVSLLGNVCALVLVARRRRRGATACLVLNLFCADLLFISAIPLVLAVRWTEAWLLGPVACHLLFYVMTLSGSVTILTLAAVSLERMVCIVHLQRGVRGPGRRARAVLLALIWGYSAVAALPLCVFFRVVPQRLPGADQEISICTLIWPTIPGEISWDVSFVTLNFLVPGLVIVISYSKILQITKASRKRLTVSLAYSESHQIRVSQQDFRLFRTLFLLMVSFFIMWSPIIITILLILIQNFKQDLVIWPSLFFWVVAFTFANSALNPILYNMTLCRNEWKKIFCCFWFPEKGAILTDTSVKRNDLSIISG
Assay type: cell-based
How it was run: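 HEK293 cells stably co-expressing Gqi5 and Flag-tagged human GPR120, loaded with Calcium 4 dye in HBSS/HEPES pH 7.4 at 37 °C; compounds at eight concentrations, 0.00001–20 μM, fluorescence (485/525 nm) read 90 s. EC50 from Max−Min change; percent activity relative to GW9508 maximum at 6.7 μM.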

Going from `CC(Cc1ccc(OCc2cc(Cl)cc3c2OC(C)(C)C3)cc1)C(=O)O` (stereo not drawn) [Example 13] to `CCN(CC)c1cc(COc2ccc(CC(C)C(=O)O)cc2)c2c(c1)CC(C)(C)O2` (stereo not drawn) [Example 89, 3-(4-((5-(diethylamino)-2,2-dimethyl-2,3-dihydrobenzofuran-7-yl)methoxy)phenyl)-2-methylpropanoic acid], the “% Activity (GW9508 Reference Compound)” value falls from 119.0442% to 82.28%.

First: CC(Cc1ccc(OCc2cc(Cl)cc3c2OC(C)(C)C3)c(F)c1)C(=O)O (stereo not drawn) [Example 10, 3-(4-((5-chloro-2,2-dimethyl-2,3-dihydrobenzofuran-7-yl)methoxy)-3-fluorophenyl)-2-methylpropanoic acid]
Second: Cc1cc(CC(C)C(=O)O)ccc1OCc1cc(Cl)cc2c1OC(C)(C)C2 (stereo not drawn) [Example 11, 3-(4-((5-chloro-2,2-dimethyl-2,3-dihydrobenzofuran-7-yl)methoxy)-3-methylphenyl)-2-methylpropanoic acid]
The “% Activity (GW9508 Reference Compound)” value of the first is lower: 106.7955% for the first, 124.2119% for the second.

Going from `CC(Cc1ccc(NCc2cc(F)cc3c2OC(C)(C)C3)cc1)C(=O)O` (stereo not drawn) [Example 67, 3-(4-(((5-fluoro-2,2-dimethyl-2,3-dihydrobenzofuran-7-yl)methyl)amino)phenyl)-2-methylpropanoic acid] to `CC(CCc1ccc(OCc2cc(F)cc3c2OC(C)(C)C3)cc1)C(=O)O` (stereo not drawn) [Example 171, 4-(4-((5-fluoro-2,2-dimethyl-2,3-dihydrobenzofuran-7-yl)methoxy)phenyl)-2-methylbutanoic acid], the “% Activity (GW9508 Reference Compound)” value falls from 141.82% to 98.97%.

Going from `[2H]C1([2H])c2cc(Cl)cc(COc3ccc(CC(C)C(=O)O)cc3C(F)(F)F)c2OC1(C)C` (stereo not drawn) [Example 147, 3-(4-((3,3-dideuterio-5-chloro-2,2-dimethyl-2,3-dihydrobenzofuran-7-yl)methoxy)-3-(trifluoromethyl)phenyl)-2-methylpropanoic acid] to `C[C@H](Cc1ccc(OCc2cc(Cl)cc3c2OC(C)(C)C3)c(C(F)(F)F)c1)C(=O)O` [Example 143, (R)-3-(4-((5-chloro-2,2-dimethyl-2,3-dihydrobenzofuran-7-yl)methoxy)-3-(trifluoromethyl)phenyl)-2-methylpropanoic acid], the “% Activity (GW9508 Reference Compound)” value falls from 138.65% to 90.56%.

Compared with `CC(Cc1ccc(OCc2cc(Cl)cc3c2OC(C)(C)C3=O)c(F)c1)C(=O)O` (stereo not drawn) [Example 77, 3-(4-((5-chloro-2,2-dimethyl-3-oxo-2,3-dihydrobenzofuran-7-yl)methoxy)-3-fluorophenyl)-2-methylpropanoic acid], `CC(Cc1ccc(OCc2cc(Cl)cc3c2OC(C)(C)C3=O)c(C(F)(F)F)c1)C(=O)O` (stereo not drawn) [Example 79, 3-(4-((5-chloro-2,2-dimethyl-3-oxo-2,3-dihydrobenzofuran-7-yl)methoxy)-3-(trifluoromethyl)phenyl)-2-methylpropanoic acid] is lower in “% Activity (GW9508 Reference Compound)” value: 109.62% for the first, 3.85% for the second.

First: CC(Cc1cc(F)c(OCc2cc(Cl)cc3c2OC(C)C3(C)C)c(F)c1)C(=O)O (stereo not drawn) [Example 109, 3-(4-((5-chloro-2,3,3-trimethyl-2,3-dihydrobenzofuran-7-yl)methoxy)-3,5-difluorophenyl)-2-methylpropanoic acid]
Second: Cc1cc(COc2c(F)cc(CC(C)C(=O)O)cc2F)c2c(c1)CC(C)(C)O2 (stereo not drawn) [Example 5, 3-(3,5-difluoro-4-((2,2,5-trimethyl-2,3-dihydrobenzofuran-7-yl)methoxy)phenyl)-2-methylpropanoic acid]
The “% Activity (GW9508 Reference Compound)” value of the first is lower: 72.36% for the first, 149.2% for the second.

Going from `CC1(C)Cc2cc(Cl)cc(COc3c(F)cc(C4CC4CC(=O)O)cc3F)c2O1` (stereo not drawn) [Example 41, 2-(2-(4-((5-chloro-2,2-dimethyl-2,3-dihydrobenzofuran-7-yl)methoxy)-3,5-difluorophenyl)cyclopropyl)acetic acid] to `CC(CC(=O)O)c1cc(F)c(OCc2cc(Cl)cc3c2OC(C)(C)C3)c(F)c1` (stereo not drawn) [Example 106, 3-(4-((5-chloro-2,2-dimethyl-2,3-dihydrobenzofuran-7-yl)methoxy)-3,5-difluorophenyl)butanoic acid], the “% Activity (GW9508 Reference Compound)” value rises from 116.46% to 154.51%.

Compared with `CC(Cc1cc(F)c(OCc2cccc3c2OC(C)(C)C3)c(F)c1)C(=O)O` (stereo not drawn) [Example 23, 3-(4-((2,2-dimethyl-2,3-dihydrobenzofuran-7-yl)methoxy)-3,5-difluorophenyl)-2-methylpropanoic acid], `COc1cc(CCC(=O)O)c(Br)cc1OCc1cc(F)cc2c1OC(C)(C)C2` [Example 56, 3-(2-bromo-4-((5-fluoro-2,2-dimethyl-2,3-dihydrobenzofuran-7-yl)methoxy)-5-methoxyphenyl)propanoic acid] is lower in “% Activity (GW9508 Reference Compound)” value: 112.7429% for the first, 108.51% for the second.

With `CCc1cc(OCc2cccc3c2CC(C)(C)O3)ccc1CCC(=O)O` [Example 140, 3-(4-((2,2-dimethyl-2,3-dihydrobenzofuran-4-yl)methoxy)-2-ethylphenyl)propanoic acid] the “% Activity (GW9508 Reference Compound)” value was 146.18%.

Same assay, conditions: human GPR120 cells, Ca2+ fluorescence; reference compounds, typical value

“4-[[(3-phenoxyphenyl)methyl]amino]benzene propanoic acid [GW9508, reference compound]” was tested, and the “concentration at which activity reached a maximum” value was “approximately 6.7 μM”.

Same assay, conditions: human GPR120 stably expressing cells, Ca2+ fluorescence (Max-Min), eight concentrations 0.00001 to 20 μM

For `CC1(C)Cc2cc(Cl)cc(COc3c(F)cc(C4CC4CC(=O)O)cc3F)c2O1` (stereo not drawn) [Example 41, 2-(2-(4-((5-chloro-2,2-dimethyl-2,3-dihydrobenzofuran-7-yl)methoxy)-3,5-difluorophenyl)cyclopropyl)acetic acid], the EC50 was > 10 µM.

What follows are compounds tested on C57BL/6J mice (assay: Intra peritoneal glucose tolerance test (IPGTT)). Settings: Mus musculus, 2 h; C57BL/6J mice fasted overnight, compound 30 mg/kg oral gavage at -30 min, 2 g/kg glucose intra peritoneally, incremental AUC 0-120 min vs vehicle; read-out: % reduction IPGTT at 30 mg/kg.
Assay type: in vivo
Procedure: 8-10 week old male C57BL/6J mice (Harlan) were maintained on regular chow diet from Harlan (2018 Teklad Global). On the day before the experiment mice were fasted overnight, then randomized into groups (n=10-15) to receive the tested GPR120 agonist at doses ranging from 100 mg/kg or the vehicle (1% CMC, 2% TWEEN 80). Compounds were delivered orally via gavage at 10 mL/kg. Blood glucose levels were measured by glucometer (Ascensia Elite XL, Bayer) at time −30 minutes before administration of compound. Blood glucose was measured again after 30 minutes (at time 0), and then the mice were dosed intra peritoneally with 2 g/kg glucose at 10 mL/kg. Blood glucose measurements were taken 20, 40, 60, 90 and 120 minutes after glucose administration, by glucometer (Ascensia Elite XL, Bayer).
Glucose levels were plotted against time, and the incremental area under the curve (AUC) of the glucose excursion was determined from time 0 using Graphpad Prism 5.01. Outliers were excluded using Tukey's box plot outlier test, and statistical significance of differences in AUC of compound treatment compared to vehicle was determined by non-parametric Kruskal-Wallis test with Dunn's post test.
The compounds were tested at 30 mg/kg and the levels of blood glucose were determined in the presence and absence of the tested compounds. The percentage of glucose reduction is reported. […]

First: CC(Cc1ccc(OCc2cc(Cl)cc3c2OC(C)(C)C3)cc1)C(=O)O (stereo not drawn) [Example 13]
Second: CC(Cc1ccc(OCc2cc(Cl)cc3c2OC(C)(C)C3)c(F)c1)C(=O)O (stereo not drawn) [Example 10, 3-(4-((5-chloro-2,2-dimethyl-2,3-dihydrobenzofuran-7-yl)methoxy)-3-fluorophenyl)-2-methylpropanoic acid]
The inhibition in vivo at 30 mg/kg of the first is higher: 31% for the first, 30.7% for the second.
